# Data reported in the METLIN SMRT retention time set (Domingo-Almenara et al. 2019).
# Test: gradient 5% acetonitrile 3 min, to 50% in 2 min, to 85% in 15 min, held 3 min, 100 µL/min
# Settings: column: Zorbax Extend-C18 2.1 x 50 mm; eluents: water / acetonitrile, 0.1% formic acid
# Outline: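 In both positive and negative ionization mode, a quadrupole time-of-flight mass spectrometer coupled to HPLC analyzed pure standards run in mixtures of ~100 molecules. The Zorbax Extend-C18 column (2.1 × 50 mm, 1.8 μm) was operated at 100 μL/min with water and acetonitrile, each containing 0.1% formic acid. The dead volume was 40 μL and the dwell volume 900 μL. Retention time came from adduct peaks that were computationally picked and individually inspected by hand.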
row,RP-LC retention time,Compound
1,568 s,COc1ccc(NC(=O)N2CCc3[nH]cnc3C2c2ccccn2)cc1OC (centres undefined)
2,916 s,Cc1ccc(NC(=O)N2CCCCC2)cc1[N+](=O)[O-]
3,1140 s,CCc1cc(C(=O)Nc2ccc(F)cc2C)nc2ccnn12
4,722 s,NC(=O)c1nc(-c2ccccc2F)n2c1CCCCC2
5,758 s,O=C(Cn1nc(C(=O)N2CCCC2)c2ccccc21)NC1CCCC1
6,883 s,CCCCS(=O)(=O)NC1CCCC(OC(=O)Nc2ccc(F)cc2)C1 (centres undefined)
7,620 s,COc1ccc(OC)c(CN2CCn3c(nn(CC4CC4)c3=O)C2)c1
8,772 s,COc1ccc(OC)c(S(=O)(=O)N2CCOCCNC(=O)[C@H]3CCCC[C@H]32)c1
9,785 s,Cc1ccccc1C(=O)N1CCN(S(=O)(=O)c2cc3c4c(c2)CCC(=O)N4CCC3)CC1
10,742 s,Nc1cc(C2CCN(S(=O)(=O)Cc3cccc(F)c3)CC2)no1
11,625 s,CC(=O)N1CCCC(c2nc(CCNC(=O)C3CCC3)cs2)C1 (centres undefined)
12,720 s,CCCn1ccc2sc(C)c(C(=O)NC(C)C)c2c1=O
13,817 s,CCNC(=O)N1CCCC(c2cccc(C(=O)NC3CCCCC3)c2)C1 (centres undefined)
14,708 s,CCN(CC)S(=O)(=O)N1CCC(C(=O)N2CCN(Cc3noc4ccccc34)CC2)CC1
15,1320 s,CCC(C)NC(=O)C1CCCN(c2nccnc2Sc2ccc(C)cc2)C1 (centres undefined)
16,666 s,CC1CCCN(CC2CCN(S(=O)(=O)Cc3cc(F)cc(F)c3)CC2)C1 (centres undefined)
17,960 s,O=c1n(Cc2cc(F)cc(F)c2)nc2ccc(S(=O)(=O)N3CCCCC3)cn12
18,927 s,COCCn1c(C2CCN(S(=O)(=O)c3ccc(C(C)C)cc3)C2)nc2cccnc21 (centres undefined)
19,936 s,CCOC(=O)C1CCN(C(=O)C2CCN(S(=O)(=O)c3cc(Cl)ccc3OCC)CC2)CC1
20,559 s,Cc1ncsc1CN1CC(c2ncc(C)n2Cc2ccccc2)C1
21,732 s,Cc1ccccc1CNC(=O)C1CCCN1S(=O)(=O)c1cc2c(cc1C)NC(=O)CO2 (centres undefined)
22,514 s,O=C(C1CCCN(c2nnc3ccccn23)C1)N1CCN(c2ccccn2)CC1 (centres undefined)
23,653 s,CCOC(=O)c1ccc(Nc2c(C(=O)N3CCCCC3C)cnc3nc(C)ccc23)cc1 (centres undefined)

row,RP-LC retention time,Compound
1,612 s,CCCn1ccc2oc(C)c(C(=O)N3CCN(C4CCCCC4)CC3)c2c1=O
2,992 s,O=C(NCc1ccc2c(c1)OCO2)C1CCCN(c2ncc(-c3ccccc3)cn2)C1 (centres undefined)
3,712 s,COc1cc(NC(=O)C2CCCN(c3cnc4nccnc4c3)C2)cc(OC)c1 (centres undefined)
4,694 s,Cc1cc(C(=O)N2CCCC(c3nnc(-c4cccs4)o3)C2)no1 (centres undefined)
5,826 s,Cc1ccc(S(=O)(=O)N2C[C@@H](F)C[C@H]2C(=O)N2CCCCC2)cc1Cl
6,743 s,COc1ccc(OC)c(CNC(=O)C2CCN(C(=O)C3Sc4ccccc4NC3=O)CC2)c1 (centres undefined)
7,614 s,CC(C)CC1c2nccn2CCCN1C(=O)c1cc(C2CC2)[nH]n1 (centres undefined)
8,851 s,CCc1nc2cc(N3CCC(C(=O)NCc4ccc(F)cc4)CC3)cnc2nc1CC
9,571 s,O=C(Nc1cc(F)ccc1F)N1CCc2nc[nH]c2C1
10,808 s,O=C1NCCCCCCN(C(=O)Nc2ccc3c(c2)OCCO3)[C@H]2CCCC[C@@H]12
11,642 s,O=C(CC1CCCC1)N1CCN(c2nc(CN3CCCCC3)cs2)CC1
12,816 s,Cc1nnc(C2CCCCCN2S(=O)(=O)c2ccccc2F)o1 (centres undefined)
13,999 s,Cc1ccc(-n2nc(N3CCCC(C(=O)Nc4cccc(C)c4C)C3)ccc2=O)cc1Cl (centres undefined)
14,1100 s,Cc1cccc(CNC(=O)c2nnc(-c3ccc(S(=O)(=O)N4CCC(C)CC4)cc3)o2)c1
15,783 s,CCNC(=O)c1nc(C(=O)NC2CCCCC2)cs1
16,949 s,CCCCN(Cc1ccco1)C(=O)C1CCCN(c2ncnc3c2nc2n3CCCCC2)C1 (centres undefined)
17,710 s,CC(C)Oc1ccc(CNC(=O)C2(C)CCCCC(=O)N2)cc1 (centres undefined)
18,822 s,Cc1ccccc1Cn1c(CN2CCC(C(=O)NCCC(C)C)CC2)cc2ccccc21
19,814 s,O=C1CCCc2cc(S(=O)(=O)N3CCC(C(=O)NC4CCCCCCC4)CC3)ccc2N1
20,699 s,C=CCN1CCN(c2nc3cc(C(=O)OC)ccc3c(=O)n2-c2ccc(F)c(Cl)c2)CC1
21,941 s,COc1ccccc1NC(=O)N1CCCC1c1nc(-c2cccc(Cl)c2)no1 (centres undefined)
22,702 s,Cc1cc(C(=O)NC(C)C)c2cc(Br)ccc2n1

# More lines, now with the values behind:
row,Compound,RP-LC retention time
1,COc1ccc(NC(=O)Cn2ccc3ccc(-c4nnc(C)o4)cc32)cc1Cl,811 s
2,Cc1cc(C)n(-c2ccnc(N(C)Cc3ccccc3)n2)n1,1070 s
3,COc1ccc(S(=O)(=O)N2CCC(c3noc(-c4ccccn4)n3)C2)cc1 (centres undefined),802 s
4,O=C(CN1CCN(Cc2ccc(F)cc2Cl)C1=O)NCCCc1ccccc1,930 s
5,CCN(CC)S(=O)(=O)c1cccc(-c2nnc(-c3ccccc3Br)o2)c1,1100 s
6,Cc1nc2c(NS(=O)(=O)c3ccc(F)c(C)c3)cccn2n1,784 s
7,NS(=O)(=O)c1ccc(NC2(C(=O)O)CCCC2)cc1,1010 s
8,O=C(Cn1nc2c(cc1=O)CCCC2)Nc1ccc(N2CCCCS2(=O)=O)cc1,720 s
9,O=S(=O)(c1ccc(Br)cc1)N1CCc2nc[nH]c2C1,615 s
10,O=C(CN1CC=C(c2cnn(-c3ccccc3)c2)CC1)N1CCN(Cc2ccc3c(c2)OCO3)CC1,591 s
11,COc1ccc(N2CC(c3noc(-c4ccc(OC)cc4OC)n3)CC2=O)cc1 (centres undefined),861 s
12,C[C@](O)(COc1ccc(C#N)cc1)C(=O)Nc1ccc(C#N)c(C(F)(F)F)c1,972 s
13,Cc1cc(C)c2c(-n3cccc3)nn(CC(=O)NC(C)CCc3ccccc3)c2n1 (centres undefined),1080 s
14,COc1ccc(NC(=O)N2CCC3(CC2)N=C(c2cccc(F)c2)C(=O)N3)c(OC)c1,786 s
15,O=C(CCc1c(-c2ccc(F)cc2)nc2ccccn12)Nc1cccc(Cl)c1,730 s
16,CCC(C)NC(=O)c1cn(CCOC)cc2c(=O)n(-c3ccccc3)nc1-2 (centres undefined),819 s
17,O=C(NCCN1CCN(c2ccc(Cl)cc2)CC1)C(=O)Nc1cc(F)ccc1F,613 s
18,COc1ccc2c(c1)C1(CCN(C(=O)c3ccccc3OC)C1)C(=O)N2 (centres undefined),709 s
19,CCOCCCNC(=O)c1cnn2c(C(F)(F)F)cc(-c3ccccc3)nc12,1010 s
20,Brc1cccc(-c2nnc(Cc3nc(-c4ccc5c(c4)OCO5)no3)o2)c1,1060 s
21,CCn1c(CN(c2ccc(F)cc2)S(C)(=O)=O)nnc1SCc1nnc(-c2ccccc2)o1,760 s
22,CN1C(=O)c2cccn2CC1CNS(=O)(=O)c1cccc2nsnc12 (centres undefined),680 s

row,Compound,RP-LC retention time
1,Cc1ccc(-c2nc3nc(C)cc(NCc4ccc5c(c4)OCO5)n3n2)cc1,892 s
2,CCn1cc(-c2nc(C(=O)Nc3cc(C)ccc3F)cs2)c2cccnc21,1240 s
3,Cc1sc2c(c1C)C(c1ccc(Cl)cc1)=N[C@@H](CC(=O)Nc1ccc(O)cc1)c1nnc(C)n1-2,922 s
4,O=C(CC1(O)C(=O)Nc2c(Cl)cc(Cl)cc21)c1cccc([N+](=O)[O-])c1 (centres undefined),792 s
5,Cc1cc(C)n(-c2nc(C)c(C(=O)Nc3ccccc3F)s2)n1,1120 s
6,CCn1nccc1-c1cccc(-c2noc(-c3ccc(Br)o3)n2)c1,1180 s
7,COc1ccccc1N1CCN(C(=O)C2CCN(C(=O)C3Sc4ccccc4NC3=O)CC2)CC1 (centres undefined),717 s
8,Cc1ccc(S(=O)(=O)N2CCN(S(=O)(=O)N3CCCCC3)CC2)cc1,922 s
9,O=C(NCC1COc2ccccc2O1)C(=O)Nc1cccc(Br)c1 (centres undefined),1030 s
10,CCn1cc(C)c(C(=O)O)c1CC(=O)NCCc1ccc(C)cc1,842 s
11,O=C(NCc1cccnc1)C(CCO)Sc1nc2sc3c(c2c(=O)[nH]1)CCCC3 (centres undefined),544 s
12,Cc1nc(-c2ccc(-c3noc(CNC(=O)c4ccccc4)n3)cc2)cs1,902 s
13,COc1ccc(-c2nnc3sc(-c4cccnc4)nn23)cc1OC,695 s
14,COc1ccc(NC(=O)C2(C)Oc3cccnc3N(C(C)C)C2=O)c(OC)c1 (centres undefined),1010 s
15,O=C(Nc1nc(CCC(=O)N2CCn3c2nc2ccccc23)cs1)c1ccc(F)cc1,721 s
16,COC(=O)C1=C(C)N(C(C)C)C(=O)C1(NC(=O)CCc1ccccc1)C(F)(F)F (centres undefined),936 s
17,COc1ccc(-c2csc(Nc3cccnc3)n2)cc1,656 s
18,COc1cc(NC(=O)Nc2nccn(-c3cccc(Cl)c3)c2=O)cc(OC)c1,978 s
19,COc1ccc(-c2nc3ccccn3c2NC(=O)c2cccc([N+](=O)[O-])c2)cc1,659 s
20,N#Cc1c(N)sc2c1CCC(c1ccccc1)C2 (centres undefined),955 s
21,CCc1noc(NC(C)=O)c1-c1ccc(C)c(S(=O)(=O)Nc2ccc(OC)c(Cl)c2)c1,1300 s
22,CCCCNC(=O)C1CCC(=O)N(c2ccc(OC)cc2)C1c1ccc(OC)c(OC)c1 (centres undefined),658 s
